The subject of test [1] is cultured human mast cells (CHMC). Kind of test: CHMC low cell density IgE activation: tryptase assay. The test is classed as cell-based. Conditions: anti-IgE. The procedure, abridged: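 Supernatant tryptase activity, assayed with substrate for 30 min at room temperature, served as the degranulation measure. Mast cells (1000-1500 per well depending on donor) sat 1 hr at 37° C in MT before a 30 min anti-IgE challenge at 37° C.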

Test [2] has the same test system. Kind of test: CHMC low cell density ionomycin activation: tryptase assay. Format: cell-based.

Usually IC50 stands for the concentration at which inhibition is half-maximal. A high value points to weaker potency in that assay. `CNC(=O)COc1ccc(Nc2nc(Nc3ccc4c(c3)OCCO4)ncc2F)cc1` [R945173, N2-(3,4-Ethylenedioxyphenyl)-5-fluoro-N4-(4-methylaminocarbonylmethyleneoxyphenyl)-2,4-pyrimidinediamine]: the values for the IC50 in test [1] and in test [2] were 1.42 µM and over 10 µM, respectively.

Consider `CNC(=O)COc1cccc(Nc2ncc(F)c(Nc3ccc(OC)c(OC)c3)n2)c1` [R926733, N4-(3,4-Dimethoxyphenyl)-5-fluoro-N2-[3-(N-methylamino)carbonylmethyleneoxyphenyl]-2,4-pyrimidinediamine], for which the results for the IC50 in test [1] and in test [2] were 1.5 µM and over 10 µM, respectively.

As to `O=C(NCCO)c1cc2cc(Nc3ncc(F)c(Nc4ccc5oc(C(=O)NCCO)cc5c4)n3)ccc2o1` [R950167, N2,N4-Bis[2-(2-hydroxyethyleneamoinocarbonyl)-benzofurane-5-yl]-5-fluoro-2,4-pyrimidinediamine], the IC50 in test [1] and in test [2] was over 10 µM in each case.

Take `COc1ccc(Nc2ncc(F)c(Nc3ccc(OC)c(-c4ccccc4)c3)n2)cc1-c1ccccc1` [R926399, N2,N4-Bis[(4-methoxy-3-phenyl)phenyl]-5-fluoro-2,4-pyrimidinediamine]: the IC50 in test [1] and in test [2] was over 10 µM throughout.

As for `CCOC(=O)COc1cccc(Nc2nc(Nc3cccc(O)c3)ncc2F)c1` [R926775, N4-(3-Ethoxycarbonylmethyleneoxyphenyl)-5-fluoro-N2-(3-hydroxyphenyl)-2,4-pyrimidinediamine], the values for the IC50 in test [1] and in test [2] were 3.47 µM and over 10 µM, respectively.

Consider `CCOC(=O)c1cnc(N[C@H](C(=O)OCC)C(C)C)nc1N[C@H](C(=O)OCC)C(C)C` [R926527, 2,4-Bis[N-(L)-valinylethyl ester]-5-ethoxycarbonylpyrimidine], for which the IC50 in test [1] and in test [2] was over 10 µM each time.

Take `CCOC(=O)COc1ccc(Nc2ncc(-c3nnn[nH]3)c(Nc3ccc(OCC(=O)OCC)cc3)n2)cc1` [R925810, N2,N4-Bis(4-ethoxycarbonylmethyleneoxyphenyl)-5-(1,2,3,4-tetrazol-5-yl)-2,4-pyrimidinediamine]: the IC50 in test [1] and in test [2] was over 10 µM in each case.

As for `COC(=O)COc1cccc(Nc2ncc(F)c(Nc3cccc(O)c3)n2)c1` [R945118, 5-Fluoro-N4-(3-hydroxyphenyl)-N2-(3-methoxycarbonylmethyleneoxyphenyl)-2,4-pyrimidinediamine], the values for the IC50 in test [1] and in test [2] were 0.668 µM and over 10 µM, respectively.

On to `NC(=O)COc1ccc(Nc2nc(Nc3cccc(O)c3)ncc2F)cc1` [R945063, N4-[4-(Aminocarbonylmethyleneoxy)phenyl]-5-fluoro-N2-(3-hydroxyphenyl)-2,4-pyrimidinediamine], for which the IC50 in test [1] is 1.55 µM; in test [2] it was over 10 µM.

With `CCOC(=O)C(C)Oc1ccc(Nc2ncc(C)c(Nc3ccc(OC(C)C(=O)OCC)cc3)n2)cc1` (racemic) [R926259, (±)-N2,N4-Bis[4-ethoxycarbonyl(alpha-methyl)methyleneoxyphenyl]-5-methyl-2,4-pyrimidinediamine], the figures for the IC50 in test [1] and in test [2] were 2.5 µM and 6.2 µM, respectively.

For `CCOC(=O)COc1ccc(Nc2nc(Cl)c(Cl)c(Nc3ccc(OCC(=O)OCC)cc3)n2)cc1` [R926569, N2,N4-Bis(4-ethoxycarbonylmethyleneoxyphenyl)-5,6-dichloro-2,4-pyrimidinediamine], the IC50 in test [1] came out at 0.61 µM; in test [2] it was 3.07 µM.

As to `CCOC(=O)c1cnc(Nc2ccc(OCC(=O)NC)cc2)nc1Nc1cccc(O)c1` [R925839, 5-Ethoxycarbonyl-N4-(3-hydroxyphenyl)-N2-[4-(N-methylamino)carbonylmethyleneoxyphenyl]-2,4-pyrimidinediamine], the IC50 in test [1] and in test [2] was over 10 µM in each case.

For `CC(C)(C)c1ccc(Nc2nc(Nc3cccc(OCC(=O)O)c3)ncc2F)cc1` [R926726, N4-(4-tert-Butylphenyl)-N2-(3-carboxymethyleneoxyphenyl)-5-fluor-2,4-pyrimidinediamine], the IC50 in test [1] and in test [2] was over 10 µM throughout.

For `COC(=O)COc1cccc(Nc2ncc(F)c(Nc3cc(C)c(OC)c(C)c3)n2)c1` [R945153, N4-(3,5-Dimethyl-4-methoxyphenyl)-5-fluoro-N2-(3-methoxycarbonylmethyleneoxyphenyl)-2,4-pyrimidinediamine], the IC50 is 0.688 µM in test [1] and 6.56 µM in test [2].

Take `CNCCNC(=O)CNc1cccc(Nc2ncc(F)c(Nc3ccc4c(c3)OCCO4)n2)c1` [R950196, N4-(3,4-Ethylenedioxyphenyl)-5-fluoro-N2-[3-(N-methylamino)ethyleneaminocarbonylmethyleneaminophenyl]-2,4-pyrimidinediamine]: the IC50 in test [1] was 2.2 µM; in test [2] it was over 10 µM.

Consider `Oc1cccc(Nc2nc(Nc3ccc(OCC4=NCCCN4)cc3)ncc2F)c1` [R945169, 5-Fluoro-N4-(3-hydroxyphenyl)-N2-[4-(1,4,5,6-tetrahydro-2-pyrimidyl)methyleneoxyphenyl]-2,4-pyrimidinediamine], for which the values for the IC50 in test [1] and in test [2] were 10 µM and over 10 µM, respectively.

`COC(=O)c1cc2cc(Nc3ncc(F)c(Nc4ccc5c(c4)C(=O)OC5)n3)ccc2o1` [R940294, N4-(3,3-Dihydroisobenzofuranyl-1-one-6-yl)-5-fluoro-N2-(2-methoxycarbonylbenzofur-5-yl)-2,4-pyrimidinediamine]: the figures for the IC50 in test [1] and in test [2] were 1.37 µM and over 10 µM, respectively.

With `CCOC(=O)COc1ccc(Nc2ncc(F)c(Nc3ccc(OCC(=O)OCC)c(Cl)c3)n2)cc1Cl` [R926676, N2,N4-Bis[3-chloro-4-(ethoxycarbonylmethyleneoxy)phenyl]-5-fluoro-2,4-pyrimidinediamine], the IC50 in test [1] is 0.76 µM; in test [2], over 10 µM.

As to `Oc1cccc(Nc2ccnc(Nc3ccc(OCc4nn[nH]n4)cc3)n2)c1` [R920819, N4-(3-Hydroxyphenyl)-N2-[4-(1H,1,2,3,4-tetrazol-5-yl)methyleneoxyphenyl]-2,4-pyrimidinediamine], the half-maximal inhibitory concentration (IC50) was 10 µM in test [1] and over 10 µM in test [2].

For “N2-(Carboxymethyleneaminophenyl)-5-fluoro-N4-[3-(2-hydroxyethyloxy)phenyl]-2,4-pyrimidinediamine [R950230]”, the IC50 in test [1] is 7.91 µM; in test [2], over 10 µM.

Regarding `COC(=O)COc1cccc(Nc2ncc(F)c(Nc3cc(C)c(O)c(C)c3)n2)c1` [R945139, N4-(3,5-Dimethyl-4-hydroxyphenyl)-5-fluoro-N2-(3-methoxycarbonylmethyleneoxyphenyl)-2,4-pyrimidinediamine], the IC50 in test [1] is 1.02 µM; in test [2] it was over 10 µM.

As to `CC(C)(C)OC(=O)COc1ccc(Nc2ncc(F)c(Nc3ccc(OCC(=O)OC(C)(C)C)cc3)n2)cc1` [R926574, N2,N4-Bis[4-(tert-butoxycarbonylmethyleneoxy)phenyl]-5-fluoro-2,4-pyrimidinediamine], the IC50 was 1.96 µM in test [1] and 2.63 µM in test [2].

Turning to “5-Fluoro N4-(3-hydroxyphenyl)-N2-(5-methyl-4-oxazolyl-2-phenyl)-2,4-pyrimidinediamine [R926779]”, the IC50 in test [1] and in test [2] was over 10 µM in each case.

In the case of `C=CCNC(=O)Oc1cccc(Nc2nc(Nc3cccc(OCC(=O)NC)c3)ncc2F)c1` [R926917, 5-Fluoro-N4-[3-[(N-allylamino)carbonyloxy]phenyl]-N2-[3-[(N-methylamino)carbonylmethyleneoxy]phenyl]-2,4-pyrimidinediamine], the results for the IC50 in test [1] and in test [2] were 1.17 µM and over 10 µM, respectively.

Take `CNC(=O)COc1cccc(Nc2ncc(F)c(Nc3cc(OC)cc(C(F)(F)F)c3)n2)c1` [R926833, 5-Fluoro-N4-(3-methoxy-5-trifluoromethylphenyl)-N2-[3-(N-methylamino)carbonylmethyleneoxyphenyl]-2,4-pyrimidinediamine]: the IC50 was 1.13 µM in test [1] and over 10 µM in test [2].

With `CCOC(=O)CNc1cccc(Nc2ncc(F)c(Nc3cccc(O)c3)n2)c1` [R950216], the IC50 in test [1] (Homo sapiens, Mast cell) is 0.327 µM; in test [2] (Homo sapiens, Mast cell) it was over 10 µM.

For `CCOC(=O)CCn1ncc2cc(Nc3ncc(F)c(Nc4cccc(OC(F)(F)F)c4)n3)ccc21` [R935360, N2-[1-(2-Ethoxycarbonylethyl)indazoline-5-yl]-5-fluoro-N4-(3-trifluoromethoxyphenyl)-2,4-pyrimidinediamine], the IC50 was 0.903 µM in test [1] and over 10 µM in test [2].

Take `COc1c(C)cc(Nc2nc(Nc3cccc(OCC(=O)N4CCNCC4)c3)ncc2F)cc1C` [R945156, N4-(3,5-Dimethyl-4-methoxyphenyl)-5-fluoro-N2-[3-(N-piperazino)carbonylmethyleneoxyphenyl]-2,4-pyrimidinediamine]: the IC50 in test [1] is 0.787 µM; in test [2], over 10 µM.

Regarding `CNC(=O)COc1ccc(Nc2ncc(F)c(Nc3ccc4c(c3)OCCO4)n2)cc1` [R926708, N4-(3,4-Ethylenedioxyphenyl)-5-fluoro-N2-[4-(N-methylamino)carbonylmethyleneoxyphenyl]-2,4-pyrimidinediamine], the IC50 in test [1] was 0.472 µM; in test [2], over 10 µM.

With `CNC(=O)COc1cccc(Nc2ncc(F)c(Nc3ccc(OC)c(O)c3)n2)c1` [R926834, 5-Fluoro-N4-(3-hydroxy-4-methoxyphenyl)-N2-[3-(N-methylamino)carbonylmethyleneoxyphenyl]-2,4-pyrimidinediamine], the IC50 in test [1] was 0.145 µM; in test [2], over 10 µM.

For the compound `COC(=O)c1cc(Nc2ncc(F)c(Nc3ccc(OC(C)C)cc3)n2)cn1C` [R935164, 5-Fluoro-N4-(4-isopropoxyphenyl)-N2-[(N-methyl-2-methoxycarbonyl)pyrrol-4-yl]-2,4-pyrimidinediamine], the 50% inhibitory concentration (IC50) in test [1] is 0.204 µM; in test [2] it was over 10 µM.

For the compound `NC(=O)COc1cccc(Nc2ncc(F)c(Nc3ccc4c(c3)OCCO4)n2)c1` [R926747, N2-(3-Aminocarbonylmethyleneoxyphenyl)-N4-(3,4-ethylenedioxyphenyl)-5-fluoro-2,4-pyrimidinediamine], the IC50 in test [1] is 0.213 µM; in test [2] it was over 10 µM.

Values taken from patent publication US9499493B2, “2,4-pyrimidinediamine compounds and their uses” (Rigel Pharmaceuticals, Inc., priority 2002, dated 2016).
